Assay results from patent US4794125A, “Compounds having an immunizing activity” (CL Pharma AG, priority 1984, dated 1988).

Test system: delayed-type hypersensitivity
Test: DTH test (delayed-type hypersensitivity in mice), topical sensitization with oxazolone
Format: in vivo
Settings: dose 1.0 mg/kg; OF-1 mice; topical sensitization with ethanol oxazolone solution
Experimental: The compounds prepared in accordance with the invention were investigated using the DTH test (delayed-type hypersensitivity in mice) according to Dietrich, F. M. & Hess, R.: Hypersensitivity in mice.
The new compounds (2,6-bis-MAA=2,6-bis-/(methylamino)-acetylamino/-anthraquinone), CS-A=cyclosporin A, were tested in vivo in OF-1 mice by topical sensitization with antigen (ethanol oxazolone solution). The decrease in the inflammatory response versus untreated animals is expressed as % inhibition.

## CNCC(=O)Nc1ccc2c(c1)C(=O)c1ccc(NC(=O)CNC)cc1C2=O [2,6-bis-MAA, 2,6-bis-(methylamino)-acetylamino-anthraquinone]
  % Inhibition (decrease in the inflammatory response versus untreated animals): 35%
